Measured values reported in PubChem BioAssay AID248 (DTP/NCI, 2004).
“And” between values parts separate entries of the source, which are not always exact repeats. Equal values may be shown once. Inconclusive results and toxic doses are left out. Cut-off read from the data, not from the text of the source: active = T/C of 150% or more; inactive = T/C below 125%.

Tested on: L1210 leukemia ip in BDF1 mice, survival T/C
Experiment: NCI In Vivo Anticancer Drug Screen. Data for tumor model L1210 Leukemia (intraperitoneal) in B6D2F1 (BDF1) mice
Conditions: endpoint: mean survival time, higher = longer survival
How it was run: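 Antitumor effect is assessed in tumor-bearing animals. Survival in the compound arm is compared with a vehicle-dosed control arm and expressed as their quotient.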

[1] = dose: 100.0 mg/kg/injection, schedule: Q04DX003 (ip), vehicle: Klucel (hydroxypropylcellulose) (HPC)
[2] = dose: 200.0 mg/kg/injection, schedule: Q04DX003 (ip), vehicle: Klucel (hydroxypropylcellulose) (HPC)
[3] = dose: 400.0 mg/kg/injection, schedule: Q04DX003 (ip), vehicle: Klucel (hydroxypropylcellulose) (HPC)
[4] = dose: 100.0 mg/kg/injection, schedule: Q01DX001 (ip), vehicle: saline
[5] = dose: 100.0 mg/kg/injection, schedule: Q01DX009 (ip), vehicle: Klucel (hydroxypropylcellulose) (HPC)
[6] = dose: 100.0 mg/kg/injection, schedule: Q04DX002 (ip), vehicle: Klucel (hydroxypropylcellulose) (HPC)
[7] = dose: 200.0 mg/kg/injection, schedule: Q04DX002 (ip), vehicle: Klucel (hydroxypropylcellulose) (HPC)
[8] = dose: 400.0 mg/kg/injection, schedule: Q04DX002 (ip), vehicle: Klucel (hydroxypropylcellulose) (HPC)
[9] = dose: 100.0 mg/kg/injection, schedule: Q04DX003 (ip), vehicle: saline
[10] = dose: 100.0 mg/kg/injection, schedule: Q01DX009 (ip), vehicle: saline with Tween-80
[11] = dose: 100.0 mg/kg/injection, schedule: Q04DX003 (ip), vehicle: saline with Tween-80
[12] = dose: 200.0 mg/kg/injection, schedule: Q01DX009 (ip), vehicle: saline with Tween-80
[13] = dose: 200.0 mg/kg/injection, schedule: Q04DX003 (ip), vehicle: saline with Tween-80
[14] = dose: 400.0 mg/kg/injection, schedule: Q01DX009 (ip), vehicle: saline with Tween-80
[15] = dose: 400.0 mg/kg/injection, schedule: Q04DX003 (ip), vehicle: saline with Tween-80

Measured: T/C

COC(=O)c1ccc2c(c1)OCO2
inactive: dose: 100.0 mg/kg/injection, schedule: Q01DX001 (ip), vehicle: saline with Tween-80 100 % of control | dose: 100.0 mg/kg/injection, schedule: Q01DX009 (ip), vehicle: saline sonified 94 % of control | dose: 200.0 mg/kg/injection, schedule: Q01DX001 (ip), vehicle: saline with Tween-80 103 % of control | dose: 200.0 mg/kg/injection, schedule: Q01DX009 (ip), vehicle: saline sonified 100 % of control | dose: 400.0 mg/kg/injection, schedule: Q01DX001 (ip), vehicle: saline with Tween-80 95 % of control | dose: 400.0 mg/kg/injection, schedule: Q01DX009 (ip), vehicle: saline sonified 102 % of control

Clc1ccc(OCc2sc3ccc(Br)cc3c2CN2CCc3ccccc3C2)cc1
inactive: dose: 75.0 mg/kg/injection, schedule: Q01DX009 (ip), vehicle: Klucel (hydroxypropylcellulose) (HPC) 101 % of control | [1] 94 % of control | dose: 150.0 mg/kg/injection, schedule: Q01DX009 (ip), vehicle: Klucel (hydroxypropylcellulose) (HPC) 94 % of control | [2] 98 % of control | dose: 300.0 mg/kg/injection, schedule: Q01DX009 (ip), vehicle: Klucel (hydroxypropylcellulose) (HPC) 97 % of control | [3] 94 % of control

Cc1cc(O)ccc1C1=NCC(C)(C)S1
inactive: dose: 100.0 mg/kg/injection, schedule: Q04DX002 (ip), vehicle: saline 93 % of control | dose: 200.0 mg/kg/injection, schedule: Q04DX002 (ip), vehicle: saline 100 % of control | dose: 400.0 mg/kg/injection, schedule: Q04DX002 (ip), vehicle: saline 103 % of control

C(=N\N(CCCCN(/N=C/c1ccccc1)c1ccccc1)c1ccccc1)/c1ccccc1
inactive: dose: 12.5 mg/kg/injection, schedule: Q01DX009 (ip), vehicle: gum acacia 111 % of control | dose: 25.0 mg/kg/injection, schedule: Q01DX009 (ip), vehicle: gum acacia 96 % of control | dose: 50.0 mg/kg/injection, schedule: Q01DX001 (ip), vehicle: saline 96 % of control | dose: 50.0 mg/kg/injection, schedule: Q01DX009 (ip), vehicle: gum acacia 92 % of control | [4] 104 % of control | dose: 100.0 mg/kg/injection, schedule: Q04DX003 (ip), vehicle: gum acacia 94 % of control | dose: 200.0 mg/kg/injection, schedule: Q01DX001 (ip), vehicle: saline 91 % of control | dose: 200.0 mg/kg/injection, schedule: Q01DX009 (ip), vehicle: gum acacia 87 % of control | dose: 200.0 mg/kg/injection, schedule: Q04DX003 (ip), vehicle: gum acacia 89 % of control | dose: 400.0 mg/kg/injection, schedule: Q01DX001 (ip), vehicle: saline 98 % of control | dose: 400.0 mg/kg/injection, schedule: Q01DX009 (ip), vehicle: gum acacia 86 % of control | dose: 400.0 mg/kg/injection, schedule: Q04DX003 (ip), vehicle: gum acacia 91 % of control

Cc1c([N+](=O)[O-])c(C)c([N+](=O)[O-])c(C(C)(C)C)c1[N+](=O)[O-]
inactive: [5] 93 % of control | [1] 92 % of control | dose: 200.0 mg/kg/injection, schedule: Q01DX009 (ip), vehicle: Klucel (hydroxypropylcellulose) (HPC) 94 % of control | [2] 100 % of control | dose: 400.0 mg/kg/injection, schedule: Q01DX009 (ip), vehicle: Klucel (hydroxypropylcellulose) (HPC) 96 % of control | [3] 94 % of control

O=C(Nc1cc(C2=NCCN2)cc(C2=NCCN2)c1)c1ccc(C(=O)Nc2cc(C3=NCCN3)cc(C3=NCCN3)c2)cc1
inactive: dose: 0.37 mg/kg/injection, schedule: Q01DX Z (ip), vehicle: methylcellulose (MC) 94 % of control | dose: 0.75 mg/kg/injection, schedule: Q01DX Z (ip), vehicle: methylcellulose (MC) 111 % of control | dose: 1.5 mg/kg/injection, schedule: Q01DX Z (ip), vehicle: methylcellulose (MC) 101 % of control | dose: 2.0 mg/kg/injection, schedule: Q01DX Z (ip), vehicle: carboxymethylcellulose (CMC) 108 % of control | dose: 3.0 mg/kg/injection, schedule: Q01DX Z (ip), vehicle: methylcellulose (MC) 95 % of control | dose: 4.0 mg/kg/injection, schedule: Q01DX Z (ip), vehicle: carboxymethylcellulose (CMC) 92 % of control | dose: 15.0 mg/kg/injection, schedule: Q01DX Z (ip), vehicle: carboxymethylcellulose (CMC) 92 % of control

NC(=O)NC(=O)c1nc2ccccc2[nH]c1=O
inactive: [6] 95 % of control | [7] 95 % of control | [8] 100 % of control

O=c1oc2ccccc2c(N2CCCCC2)c1Cl
inactive: dose: 100.0 mg/kg/injection, schedule: Q04DX002 (ip), vehicle: gum acacia 111 % of control | dose: 200.0 mg/kg/injection, schedule: Q04DX002 (ip), vehicle: gum acacia 104 % of control | dose: 400.0 mg/kg/injection, schedule: Q04DX002 (ip), vehicle: gum acacia 93 % of control

COc1ccc(NC(=O)Oc2ccc(C(C)=O)cc2)cc1
inactive: dose: 25.0 mg/kg/injection, schedule: Q01DX009 (ip), vehicle: Klucel (hydroxypropylcellulose) (HPC) 100 % of control | dose: 50.0 mg/kg/injection, schedule: Q01DX009 (ip), vehicle: Klucel (hydroxypropylcellulose) (HPC) 94 % of control | [5] 97 % of control and 91 % of control

CCCCN=Cc1cc([N+](=O)[O-])ccc1O.CCCCN=Cc1cc([N+](=O)[O-])ccc1O.[Ni]
inactive: dose: 12.5 mg/kg/injection, schedule: Q01DX009 (ip), vehicle: saline with Tween-80 98 % of control | dose: 25.0 mg/kg/injection, schedule: Q01DX009 (ip), vehicle: saline with Tween-80 94 % of control | dose: 50.0 mg/kg/injection, schedule: Q01DX009 (ip), vehicle: saline with Tween-80 86 % of control

CCCCCCCCCCCCCCCCc1ccc(CCCC(=O)O)cc1
inactive: [1] 91 % of control | [2] 92 % of control | [3] 91 % of control

O=C(O)C(O)C(Br)C(=O)O (centres undefined)
inactive: dose: 50.0 mg/kg/injection, schedule: Q04DX003 (ip), vehicle: saline 95 % of control | [4] 95 % of control | [9] 104 % of control

COc1ccc(CN2CCN(Cc3ccc(OC)c(OC)c3)C2c2ccc(OC)c(OC)c2)cc1OC
inactive: [10] 94 % of control | [11] 102 % of control | [12] 104 % of control | [13] 93 % of control | [14] 108 % of control | [15] 91 % of control

c1ccc2c[n+](C[n+]3ccc4ccccc4c3)ccc2c1
inactive: [9] 103 % of control | dose: 200.0 mg/kg/injection, schedule: Q04DX003 (ip), vehicle: saline 105 % of control

O=C(O)C1C(c2c3ccc(=O)c(O)c-3oc3c(O)c(O)ccc23)C2(Cl)C(Cl)=C(Cl)C1(Cl)C2(Cl)Cl (centres undefined)
inactive: dose: 50.0 mg/kg/injection, schedule: Q01DX009 (ip), vehicle: alcohol 92 % of control | dose: 100.0 mg/kg/injection, schedule: Q01DX009 (ip), vehicle: alcohol 92 % of control | dose: 100.0 mg/kg/injection, schedule: Q04DX003 (ip), vehicle: alcohol 100 % of control | dose: 200.0 mg/kg/injection, schedule: Q04DX003 (ip), vehicle: alcohol 95 % of control

CCCC(=O)Nc1ccc(Cl)c(Cl)c1
inactive: [11] 98 % of control | [13] 102 % of control | [15] 89 % of control

O=C1[O][Hg][c]2cccc3cccc1c23
inactive: dose: 5.0 mg/kg/injection, schedule: Q04DX003 (ip), vehicle: saline with Tween-80 101 % of control | dose: 10.0 mg/kg/injection, schedule: Q04DX003 (ip), vehicle: saline with Tween-80 95 % of control

O=C(COc1ccc(Cl)cc1)Oc1c(Cl)c(Cl)c(Cl)c(Cl)c1Cl
inactive: [6] 97 % of control | [7] 115 % of control | [8] 104 % of control

COC(=O)/C=C/N(Cc1ccccc1)Cc1ccccc1
inactive: [10] 103 % of control | [12] 95 % of control | [14] 91 % of control

O=C(O)CNS(=O)(=O)c1ccccc1
inactive: dose: 100.0 mg/kg/injection, schedule: Q01DX009 (ip), vehicle: carboxymethylcellulose (CMC) 97 % of control | dose: 200.0 mg/kg/injection, schedule: Q01DX009 (ip), vehicle: carboxymethylcellulose (CMC) 101 % of control | dose: 400.0 mg/kg/injection, schedule: Q01DX009 (ip), vehicle: carboxymethylcellulose (CMC) 89 % of control
